Legend:
[1] = system: ICU patients with AKI; conditions: literature and/or clinical trials; cited from earlier work
[2] = system: patients with AKI; design: species or system human; conditions: in vivo
[3] = system: patients with AKI; experiment: Validation in eICU database: propensity score matching, chi-square test of ICU mortality (Example 4); assay type: in vivo, human
[4] = system: Intestine of rats; conditions: cited from earlier work
[5] = system: ICU patients; experiment: Anti-emetic use and in-ICU death, logistic regression (Example 3); assay type: in vivo, human; conditions: outcome in-ICU death; use of medication within average time prior to AKI
[6] = system: patients with AKI; conditions: human, in vivo
[7] = system: patients with AKI; conditions: human, in vivo; remark: listed apart in the source
[8] = system: patients without AKI on admission or prior to receiving drug; experiment: Anti-emetic usage and AKI risk in first ICU encounter: usage, max KDIGO category, binary logistic regression (Example 3); assay type: in vivo, human
Source text: Study Population: The study population excludes patients with end-stage kidney disease and excludes patients with Acute Kidney Injury on admission or prior to receiving drug. […] Metoclopramide is primarily a dopamine D2 receptor antagonist anti-emetic. […] Prochlorperazine is primarily a dopamine receptor antagonist anti-emetic. […] This was a binary logistic regression with an outcome of experiencing any AKI within a first ICU encounter. The independent variable was use of anti-emetic prior to AKI (or before discharge if no AKI). […] The independent variable was use of anti-emetic prior to AKI (or before discharge if no AKI). […] The outcome was experiencing any AKI. The […] was the use of medication within the average time prior to AKI.

[9] = system: Fridericia-corrected QTc interval; conditions: 32 mg, 15 minute infusion, cited from earlier work
[10] = system: all ICU patients; conditions: literature and/or clinical trials; cited from earlier work
[11] = after matching, 3423 patients in group
[12] = 84 mg-kg in water by oral gavage 0.25d vs vehicle
[13] = gene negatively correlated with eGFR in human AKI cohort
[14] = rat intestine, 84 mg-kg oral gavage, 0.25d vs vehicle
[15] = drug users, use before discharge/death or before AKI

SMILES: Cc1nccn1CC1CCc2c(c3ccccc3n2C)C1=O (centres unmarked) [Ondansetron]
- Reported for protecting effect in ICU patients with AKI [1]: N
- Coefficient [2]: −0.035
- Alive (patients) [3, 11]: 2993
- Death (patients) [3, 11]: 430
- ICU mortality ([3]; after propensity score matching, 3,423 patients per group): 12.56%
- Number Need to Treat (NNT) ([3]; eICU patients, 95% confidence interval 23.61, 103.72): 38.46
- Genes (differentially expressed genes in bioset) [4, 12]: 1,815
- down-regulated genes [4, 12]: 722
- up-regulated genes [4, 12]: 1,093
- Gene expression fold change by Ondansetron treatment: AMACR [4, 13]: −2.38
- Gene expression fold change by Ondansetron treatment: CASP1 [4, 13]: −8.03
- Gene expression fold change by Ondansetron treatment: CPD [4, 13]: −2.4
- Gene expression fold change by Ondansetron treatment: GBP2 [4, 13]: −4.71
- Gene expression fold change by Ondansetron treatment: KPNA2 [4, 13]: 1.68
- Gene expression fold change by Ondansetron treatment: MCL1 [4, 13]: −3.07
- Gene expression fold change by Ondansetron treatment: MET [4, 13]: −2.32
- Gene expression fold change by Ondansetron treatment: TFPI [4, 13]: 4.25
- gene expression fold change: Axin2 [4, 14]: 2.12
- gene expression fold change: Birc2 [4, 14]: −2.85
- gene expression fold change: Casp3 [4, 14]: −4.18
- gene expression fold change: Cdc42 [4, 14]: −1.7
- gene expression fold change: Cdkn2b [4, 14]: −3.79
- gene expression fold change: Crk [4, 14]: −2.78
- gene expression fold change: Ctbp2 [4, 14]: −10.3
- gene expression fold change: Ctnna1 [4, 14]: −2.95
- gene expression fold change: Ctnnb1 [4, 14]: −6.88
- gene expression fold change: Cycs [4, 14]: −2.08
- gene expression fold change: Erbb2 [4, 14]: −2.24
- gene expression fold change: Fn1 [4, 14]: −10.3
- gene expression fold change: Gsk3b [4, 14]: 2.3
- gene expression fold change: Hdac1 [4, 14]: 1.52
- gene expression fold change: Itgb1 [4, 14]: −3.18
- gene expression fold change: Jak1 [4, 14]: −10.7
- gene expression fold change: Kras [4, 14]: −2.58
- gene expression fold change: Lamb2 [4, 14]: −4.03
- gene expression fold change: Mapk1 [4, 14]: −4.09
- gene expression fold change: Mapk3 [4, 14]: −1.98
- gene expression fold change: Mapk9 [4, 14]: −5.48
- gene expression fold change: Mecom [4, 14]: 1.46
- gene expression fold change: Met [4, 14]: −2.32
- gene expression fold change: Msh2 [4, 14]: −2.29
- gene expression fold change: Mtor [4, 14]: −1.75
- gene expression fold change: Pdgfrb [4, 14]: 1.49
- gene expression fold change: Pik3r1 [4, 14]: −3.77
- gene expression fold change: Plcg2 [4, 14]: −1.63
- gene expression fold change: Pld1 [4, 14]: −5.95
- gene expression fold change: Prkcb [4, 14]: −3.73
- gene expression fold change: Pten [4, 14]: −4.92
- gene expression fold change: Raf1 [4, 14]: 1.51
- gene expression fold change: Rb1 [4, 14]: −9.02
- gene expression fold change: Smo [4, 14]: −2.45
- gene expression fold change: Sos2 [4, 14]: 2.47
- gene expression fold change: Tgfa [4, 14]: −3.86
- gene expression fold change: Tgfb1 [4, 14]: −1.54
- gene expression fold change: Tgfb3 [4, 14]: 1.83
- gene expression fold change: Tpr [4, 14]: −1.93
- Odds Ratio [5]: 0.460
- Death rate in MIMIC III database [6]: 140.91 per 1,000 patients
- average death rate [6]: 14.1%
- Death rate in eICU database [7]: 124.87 per 1,000 patients
- MAX KDIGO AKI Category 0 (%) [8, 15]: 73.54%
- MAX KDIGO AKI Category 0, number of patients [8, 15]: 32,447
- MAX KDIGO AKI Category 1 (%) [8, 15]: 13.92%
- MAX KDIGO AKI Category 1, number of patients [8, 15]: 6,143
- MAX KDIGO AKI Category 2 (%) [8, 15]: 6.68%
- MAX KDIGO AKI Category 2, number of patients [8, 15]: 2,946
- MAX KDIGO AKI Category 3 (%) [8, 15]: 5.87%
- MAX KDIGO AKI Category 3, number of patients [8, 15]: 2,588
- Odds Ratio ([8]; outcome any AKI within first ICU encounter, use of anti-emetic prior to AKI (or before discharge if no AKI)): 0.403
- Odds Ratio ([8]; outcome any AKI, use of medication within the average time prior to AKI): 0.906
- Odds Ratio ([8]; outcome any AKI, use of medication within the average time prior to AKI, listed as ondansetron): protective
- maximum mean (upper limit of 90% CI) difference in QTcF from placebo after baseline-correction ([9]; at 20 minutes): 19.6 (21.5) msec
- period in which prolongation of QTcF was observed after start of infusion [9]: 15 to 240 min
- Reported for protecting effect in all ICU patients [10]: N

— US20240009173A1, “Use of 5-HT3-Targeting Drugs for Treatment of Acute Kidney Injury” (priority 2020, published 2024)
